Laboratory results as given in paper PMC4434909, “In vitro properties of designed antimicrobial peptides that exhibit potent antipneumococcal activity and produces synergism in combination with penicillin” (Scientific Reports, 2015).
Where two headings read alike, the source gives them in different places. Where no end group is shown, it is not given here.

What was measured:
S. pneumoniae = type: cell-based, Streptococcus pneumoniae; conditions: for Overall EP: proportion of the 60 pneumococcal isolates inhibited within the MIC range
Source text: (§1) All bacterial strains were obtained from Department of Medical Microbiology, University of Malaya. Clinical isolates were previously obtained from University of Malaya Medical Centre and maintained in the laboratory. Sheep blood agar was used for pneumococcal cultivation purpose. Nutrient agar was used for cultivating E. coli ATCC 25922, S. aureus ATCC 25923, and P. aeruginosa ATCC 15442, Acinetobacter baumanii ATCC 15308, and one clinical isolate for each MRSA, E. cloacae, Citrobacter spp., and K. pneumoniae. For antimicrobial testing, Mueller-Hinton agar (MHA) and cationically-adjusted MHB (CAMHB) were prepared according to the Clinical and Laboratory Standard Institute guidelines. MHA for S. pneumoniae was supplemented with 5% (v/v) defibrinated sheep blood and 5% laked horse blood for CAMHB. All bacterial cultures were stored in multiple vials in brain heart infusion broth supplemented with 10% (v/v) glycerol at −80°C to avoid repeated freeze-thawed cycles on the cells. All freeze-stocked strains were passaged twice prior to experimentation.
(§2) Procedures were performed to determine the MIC of peptides according to the CLSI guidelines[21] against 60 pneumococcal isolates which consisted of 20 isolates each for PRSP, PISP, and PSSP. Strains were grown for 18–24 hrs at 37°C under 5% CO2. Direct suspension of the colonies were made in CAMHB and adjusted to OD625 0.08–0.1 which corresponds to 1 ~ 2 × 10^8 CFU/ml followed by serial ten-fold dilutions to give 1 × 10^6 CFU/ml. Fifty microliters of bacterial suspension was then aliquoted to 96-well round bottom microtiter plates containing equal volume of serially diluted peptides to give final concentrations of peptides encompassing the range of 1.96–250 μg/ml. […] The plates were incubated for 18–24 hrs at 37°C under 5% CO2. MIC was read as the concentration of peptide producing complete inhibition on the visible growth of the test organism. Results were pooled from three independent experiments. MIC range was defined as the range of concentrations where the peptides produce detectable antimicrobial activity. Effective percentage (EP) was the proportion of pneumococcal isolates inhibited within the MIC range. Since the isolates tested were obtained prior to 2008 where major revision in antibiotic susceptibility breakpoints were introduced, thus the pneumococci were defined according to the PEN susceptibility breakpoint (prior 2008) which corresponds to the PEN (oral penicillin V) breakpoint of the revised criteria.

[1] = tested on: penicillin-intermediate S. pneumoniae (PISP); type: cell-based, Streptococcus pneumoniae; conditions: for MIC, PISP: MIC range over 20 PISP isolates, CLSI broth microdilution, CAMHB with 5% laked horse blood, 18–24 hrs 37°C 5% CO2, peptides 1.96–250 μg/ml, three independent experiments; for EP %, PISP: effective percentage: proportion of isolates inhibited within the MIC range
Source text: as §1, §2

[2] = tested on: penicillin-susceptible S. pneumoniae (PSSP); type: cell-based, Streptococcus pneumoniae; conditions: for MIC, PSSP: MIC range over 20 PSSP isolates, CLSI broth microdilution, CAMHB with 5% laked horse blood, 18–24 hrs 37°C 5% CO2, peptides 1.96–250 μg/ml, three independent experiments; for EP %, PSSP: effective percentage: proportion of isolates inhibited within the MIC range
Source text: as §1, §2

MRSA = type: cell-based, methicillin-resistant S. aureus
Source text: as §1, §2
(§3) The broad spectrum antibacterial activity of the peptides against a panel of eight clinically important bacteria was also determined, this includes S. aureus ATCC 25923, E. coli ATCC 25922, P. aeruginosa ATCC 15442, A. baumanii ATCC 15308, and one clinical isolate each for MRSA, E. cloacae, Citrobacter spp., and K. pneumoniae.

Citrobacter spp. = type: cell-based; conditions: Gram-negative, clinical isolate; broth microdilution, CAMHB, peptides 1.96–250 μg/ml
Source text: as §1, §2, §3

E. coli ATCC 25922 = type: cell-based
Source text: as §1, §2, §3

P. aeruginosa ATCC 15442 = type: cell-based
Source text: as §1, §2, §3

S. aureus ATCC 25923 = type: cell-based
Source text: as §1, §2, §3

[3] = tested on: multiple gram-positive and gram-negative bacteria; type: cell-based; conditions: range: DM3 against seven bacteria; DM4 and DM5 apart from higher MICs against E. cloaceae, K. pneumoniae, S. aureus
Source text: as §1, §2, §3

PISP = type: cell-based, Streptococcus pneumoniae
Method: (§4) This assay was performed to evaluate the killing kinetics of peptides. One PRSP, PISP, and PSSP isolate were each grown and prepared to 5 × 10^6 CFU/ml. Each isolate in CAMHB was challenged with peptides at two times the respective MIC values. At the indicated time intervals (0, 30, 60, 120, 150, 180, 210, and 240 min; “0” indicate pretreatment), 10 μl of suspension was removed and immediately serially diluted in cold phosphate-buffered saline to arrest further reaction before spread-plated on MHA to obtain viable colony counts. The percentage cell recovered was calculated by dividing the surviving CFU of the treated cells over the surviving CFU of the untreated control cells at the respective time points. Results were pooled from three independent experiments and expressed as mean ± standard deviation (SD).

PRSP, PISP, and PSSP = type: cell-based, Streptococcus pneumoniae
Method: as §4

PRSP = type: cell-based, Streptococcus pneumoniae
Method: as §4

PSSP = type: cell-based, Streptococcus pneumoniae
Method: as §4

[4] = Gram-negative, broth microdilution, CAMHB, peptides 1.96–250 μg/ml
[5] = 30 min post treatment, 2× MIC, 5 × 10^6 CFU/ml in CAMHB, plate count, relative to untreated control

GLFDIWKKWRWRR-NH2 [DM4]
Overall MIC (S. pneumoniae): 15.63 to 125 µg/mL
Overall EP (S. pneumoniae): 100.0%
MIC, PISP [1]: 15.63 to 125 µg/mL
EP %, PISP [1]: (100.0) %
MIC, PSSP [2]: 15.63 to 125 µg/mL
EP %, PSSP [2]: (100.0) %
MIC, MRSA (MRSA; Gram-positive, clinical isolate, broth microdilution, CAMHB, peptides 1.96–250 μg/ml): 62.5 µg/mL
MIC, Citrobacter spp. (Citrobacter spp.): 31.3 µg/mL
MIC, E. coli ATCC 25922 (E. coli ATCC 25922; [4]): 62.5 µg/mL
MIC, P. aeruginosa ATCC 15442 (P. aeruginosa ATCC 15442; [4]): 31.3 µg/mL
MIC, S. aureus ATCC 25923 (S. aureus ATCC 25923; Gram-positive, broth microdilution, CAMHB, peptides 1.96–250 μg/ml): 62.5 µg/mL
antibacterial MIC range over the bacterial panel [3]: 31.3 to 62.5 µg/mL
difference in killing kinetics over PEN, PISP (PISP; 30 min post treatment, 2× MIC): 57.8%
difference in killing kinetics over PEN, average (PRSP, PISP, and PSSP; average of PRSP, PISP and PSSP, 30 min post treatment, 2× MIC): 42.4%
difference in killing kinetics over PEN, PRSP (PRSP; 30 min post treatment, 2× MIC): 39.0%
difference in killing kinetics over PEN, PSSP (PSSP; 30 min post treatment, 2× MIC): 30.5%

GLFDIWAWWRWRR-NH2 [DM2]
Overall MIC (S. pneumoniae): 7.81 to 250 µg/mL
Overall EP (S. pneumoniae): 100.0%
MIC, PISP [1]: 7.81 to 250 µg/mL
EP %, PISP [1]: (100.0) %
MIC, PSSP [2]: 15.63 to 250 µg/mL
EP %, PSSP [2]: (100.0) %
MIC, MRSA (MRSA; methicillin-resistant): 62.5 µg/mL
MIC, Citrobacter spp. (Citrobacter spp.): 62.5 µg/mL
MIC, E. coli ATCC 25922 (E. coli ATCC 25922; ATCC 25922): 250 µg/mL
MIC, P. aeruginosa ATCC 15442 (P. aeruginosa ATCC 15442; ATCC 15442): >250 µg/mL
MIC, S. aureus ATCC 25923 (S. aureus ATCC 25923; ATCC 25923): 31.3 µg/mL
difference in killing kinetics over PEN, PISP (PISP; 2): 65.4%
CFU recovered, PISP (PISP; [5]): 12.4%
difference in killing kinetics over PEN, average (PRSP, PISP, and PSSP; 2): 61.3%
CFU recovered (viability), all three groups of pneumococci (PRSP, PISP, and PSSP; [5]): < 6.0%
difference in killing kinetics over PEN, PRSP (PRSP; 2): 64.1%
CFU recovered, PRSP (PRSP; [5]): completely killed
difference in killing kinetics over PEN, PSSP (PSSP; 2): 54.4%
